# In paper PMC6444592, “Citrullination of HP1γ chromodomain affects association with chromatin” (Epigenetics & Chromatin, 2019):
# Legend:
# H1.2 = details: reprogramming and ground state pluripotent stem cells; cited from earlier work
# From the text: We previously identified a role for PADI4 during reprogramming and ground state pluripotent stem cells, where the deiminase regulates key pluripotency genes via a mechanism involving citrullination of H1.2. […] Here, we report that the chromodomain of HP1γ is also citrullinated in mESCs, at R38 and R39. […] Furthermore, mutations in HP1γ designed to mimic the loss of charge caused by citrullination inhibit binding ...
# methylated H3K9 = details: at gene promoters; cited from earlier work
# From the text: It is possible that PADI4 targets both H3R8 and HP1γ bound to the same H3N-terminal tail. The Nanog gene may represent an important example of such a locus, since chromatin immunoprecipitation experiments have shown that both HP1γ and PADI4 bind to its promoter and regulate gene expression in stem cells.
# histone H3 = experiment: citrullination of histone H3 by PADI4; format: biochemical; details: calcium, anti-H3R2-citrulline and Pan-Cit immunoblot
# Description: For immunoblotting, cells were lysed in 2 × Laemmli buffer and sonicated in a water bath (Fisherbrand) for 3 min to shear genomic DNA, spun down at full speed in a microfuge for 15 min and incubated for 5 min at 95 °C. Proteins were resolved by SDS-PAGE, transferred to nitrocellulose membrane (Millipore) using wet transfer (transfer buffer: 192 mM glycine, 25 mM Tris.HCl pH8.8) and incubated in blocking solution (5% BSA in TBS containing 0.5% Tween-20 for citrulline sensitive antibodies and 5% non-fat milk powder in TBS containing 0.1% Tween-20 for all other antibodies) for 1 h at room temperature (RT). Membranes were incubated with primary antibody at 4 °C o/n and appropriate HRP-conjugated secondary antibody for 1 h at RT. Membranes were then incubated for enhanced chemiluminescence (ECL, Promega), and proteins were detected by exposure to X-ray film or using the ChemiDoc™ MP imaging system (Bio-Rad). Images were quantified using ImageJ analysis software. Primary antibodies diluted in blocking solution were used to detect citrullinated histone H3R2 (H3R2-Cit, Abcam ab176843 at 1:1000 dilution), HP1γ (Millipore 05-690 MAB clone 42s2 [16] at 1:1000 dilution), β-Tubulin (Abcam ab6046 at 1:1000 dilution) and peptidyl-citrulline (Millipore MABN328, clone F95 [48] at 1:1000 dilution). […]
substance,measurement,setting,value
Peptidylarginine deiminase 4 [PADI4],effect of H1.2 citrullination,H1.2,eviction from chromatin and global chromatin decompaction
same,effect of H3R8 citrullination on HP1 binding to adjacent methylated H3K9,methylated H3K9,reduces the binding affinity of HP1 to adjacent methylated H3K9
same,enzymatic activity of recombinant PADI4 on histone H3,histone H3,confirmed by citrullination of histone H3
